From US20240150396A1 (The Texas A&M University System, priority 2021, published 2024)
“And” between values parts separate entries of the source, which are not always exact repeats. Identical values can stand only once. Like-named read-outs stand apart in the source and are kept apart here.

Key:
[1] = biological target: human cathepsin B (Homo sapiens (Human), UniProt P07858); experiment: Human cathepsin B inhibition, Z-FR-AMC assay; type: biochemical; settings: pH 5.5, 25° C.
How it was run: (§1)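 Recombinant human enzymes were assayed at 25°C in sodium acetate pH 5.5 with 1 mM CHAPS, 1 mM EDTA, 5 mM DTT and 10% DMSO final, using the fluorogenic substrate Z-FR-AMC. AMC release (ex 360/em 460 nm) was followed over 30–60 min and converted to rates (μM/s) via an AMC standard curve.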

[2] = biological target: human cathepsin L (Homo sapiens (Human), UniProt P07711); experiment: Human cathepsin L inhibition, Z-FR-AMC assay; type: biochemical; settings: for Ki: pH 5.5, 25° C.
How it was run: as §1

[3] = biological target: cruzain (Trypanosoma cruzi, UniProt P25779); experiment: biochemical
How it was run: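 Fluorogenic assay at 25 °C following AMC release (ex 360/em 460 nm), with typically 0.2 nM cruzain and 10% DMSO, at pH 7.5 or 5.5 buffer with 5 mM DTT.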

[4] = tested on: T. b. brucei procyclic forms; experiment: Growth of axenic cultures of T. b. brucei procyclic forms (PCFs); type: cell-based, Trypanosoma brucei brucei; settings: axenic culture; read-out: EC50 T. b. brucei PCF
[5] = tested on: T. b. brucei bloodstream forms; experiment: Growth of axenic cultures of T. b. brucei bloodstream forms (BSFs)
[6] = biological target: human cathepsin S (Homo sapiens (Human), UniProt P25774); experiment: Human cathepsin S inhibition; type: biochemical; settings: pH 5.5, 25° C., 10% DMSO
Protocol: Cruzain inhibitors were added at seven concentrations and one fixed concentration of Cbz-Phe-Arg-AMC, and time courses of AMC formation were analyzed as with cruzain.

[7] = obtained >10 minutes following initiation of reaction by addition of enzyme, pH 7.5, read-out: Ki* Cruzain
[8] = read-out: EC50 T. b. brucei BSF, axenic culture
[9] = 10% DMSO, read-out: Ki* Human Cathepsin B
[10] = 10% DMSO, read-out: Ki* Human Cathepsin L
[11] = Ki* Cruzain, obtained >10 minutes following initiation of reaction by addition of enzyme, pH 7.5
[12] = apparent initial inhibition constant, 25° C., pH 7.5, read-out: Ki
[13] = apparent tight-binding inhibition constant, 25° C., pH 7.5, read-out: Ki*
[14] = conversion of EI* back to EI, from kobs replot or recovery after preincubation and dilution

Chain of human cathepsin L (P07711 114-333): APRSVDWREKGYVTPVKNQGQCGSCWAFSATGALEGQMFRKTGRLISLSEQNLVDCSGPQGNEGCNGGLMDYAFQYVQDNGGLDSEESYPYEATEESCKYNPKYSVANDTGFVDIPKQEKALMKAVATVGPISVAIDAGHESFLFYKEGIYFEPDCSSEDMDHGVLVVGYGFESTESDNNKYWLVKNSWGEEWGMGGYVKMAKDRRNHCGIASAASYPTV
Chain of cruzain (P25779 123-467 limits assumed): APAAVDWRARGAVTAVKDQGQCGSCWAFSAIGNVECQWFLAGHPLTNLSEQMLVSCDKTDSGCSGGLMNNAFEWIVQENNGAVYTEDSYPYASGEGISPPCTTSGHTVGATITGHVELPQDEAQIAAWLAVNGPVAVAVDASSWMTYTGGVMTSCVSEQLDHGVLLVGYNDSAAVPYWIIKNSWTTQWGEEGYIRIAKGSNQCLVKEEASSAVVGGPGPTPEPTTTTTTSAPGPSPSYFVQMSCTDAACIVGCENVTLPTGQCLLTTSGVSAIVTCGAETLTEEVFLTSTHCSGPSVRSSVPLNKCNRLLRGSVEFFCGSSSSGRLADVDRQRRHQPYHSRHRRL
Chain of human cathepsin S (P25774 115-331): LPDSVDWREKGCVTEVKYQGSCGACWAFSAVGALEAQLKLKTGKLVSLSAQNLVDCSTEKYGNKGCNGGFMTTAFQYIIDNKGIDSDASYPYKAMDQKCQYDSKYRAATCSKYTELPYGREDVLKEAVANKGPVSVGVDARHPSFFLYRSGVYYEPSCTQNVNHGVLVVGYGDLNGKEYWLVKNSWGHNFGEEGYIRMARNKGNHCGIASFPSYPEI

Structure (SMILES) | Ki ([1]; read-out: Ki* hCatB) | Ki ([2]; read-out: Ki* hCatL) | ratio of Ki* of SMAI to Ki* of its free aldehyde [3] | Ki [3, 7] | EC50 [4] | EC50 [5, 8] | Ki [1, 9] | Ki [2, 10] | Ki [6] | Ki [3, 11] | Ki [3, 12] | Ki [3, 13] | k4 [3, 14] | other results
O=C(N[C@@H](Cc1ccccc1)C(=O)N[C@H]1Cc2ccccc2OC1O)OCc1ccccc1 (stereo partly drawn) [Compound 30] | 4.5 ± 0.1 µM | 28 ± 0.9 nM | 110 | 49 nM | 17 µM | 6.8 ± 1.1 µM |  |  |  |  |  |  |  | selectivity for cruzain vs human cathepsin L and S [2]: more than 10 fold
O=C(N[C@@H](Cc1ccccc1)C(=O)N[C@H](/C=C/c1ccccn1)Cc1ccccc1)OCc1ccccc1 [Compound 11, Benzyl ((S)-1-Oxo-3-phenyl-1-(((S,E)-1-phenyl-4-(pyridin-2-yl)-but-3-en-2-yl)amino)propan-2-yl)carbamate] |  |  |  |  |  |  | 28 ± 4 µM | 4300 ± 500 nM | 1800 ± 300 nM | 120 to 400 nM | 5500 ± 400 nM | 310 nM | 0.0012 ± 0.0002 s⁻¹ | 
CN1CCN(C(=O)NC(Cc2ccccc2)C(=O)NC2Cc3ccccc3OC2O)CC1 (stereo not drawn) [Compound 36] | 1.27 ± 0.07 µM | 20 ± 0.9 nM | 94 | 47 nM | 4 µM | 0.6 µM |  |  |  |  |  |  | (1.8±0.7)×10^−4 s^−1 | residence time τ ([3]; preincubation, dilution, recovery of cruzain activity): 26 min
C[n+]1ccccc1/C=C/[C@H](Cc1ccccc1)NC(=O)[C@H](Cc1ccccc1)NC(=O)OCc1ccccc1.[I-] [Compound 12, 2-((S,E)-3-((S)-2-(((Benzyloxy)carbonyl)amino)-3-phenylpropanamido)-4-phenylbut-1-en-1-yl)-1-methylpyridin-1-ium Iodide] |  |  |  |  |  |  | 19 ± 4 µM | 700 ± 40 nM | 870 ± 70 nM | 120 to 400 nM | 3800 ± 400 nM | 280 ± 80 nM |  | Ki ([3]; Ki*, apparent tight-binding inhibition constant, 25° C., pH 7.5): 120 nM; EC50 ([5]; Trypanosoma brucei, read-out: EC50 T. b. brucei BSF, axenic culture): 6.6 ± 0.6 µM
C[n+]1ccccc1/C=C/[C@H](CCc1ccccc1)NC(=O)[C@H](Cc1ccccc1)NC(=O)OCc1ccccc1 [Compound 15, 2-((S,E)-3-((S)-2-(((Benzyloxy)carbonyl)amino)-3-phenylpropanamido)-5-phenylpent-1-en-1-yl)-1-methylpyridin-1-ium] |  |  |  | 120 to 400 nM | 5 to 15 µM and 5.9 µM | 2.8 ± 0.1 µM | 37 ± 6 µM | 880 ± 60 nM | 320 ± 40 nM |  | 760 ± 40 nM | 126 nM | ≈ 0 s^−1 | Ki ([3]; calculated from global fitting to eq 6, read-out: Ki*): 600 ± 200 nM; k3 ([3]; fitting to eq 4): 0.004 ± 0.001 s⁻¹; k3 ([3]; global fitting to eq 6): 0.0012 ± 0.0004 s⁻¹; k4 ([3]; global fitting to eq 6): 0.00019 ± 0.00005 s⁻¹; Ki ([3]; global fitting to eq 6, read-out: Ki): 4300 ± 100 nM; Ki lower than the values with the three human cathepsins ([3]; pH 5.5): over 10 fold; Ki ([3]; pH 5.5, 25° C., 10% DMSO, read-out: Ki* Cruzain): 88 ± 2 nM; Ki ([3]; pH 5.5, read-out: Ki* Cruzain): 88 nM; Ki ([3]; replot of kobs vs inhibitor, fitting to eq 4, read-out: Ki): 2000 ± 900 nM
